The values that follow come from patent publication US20110230472A1, “RING-FUSED AZOLE DERIVATIVE HAVING PI3K-INHIBITING ACTIVITY” (Shionogi & Co., Ltd., priority 2008, published 2011).

For data set [1], the system named is AKT phosphorylation in human monocyte-like cell line THP-1. Briefly: AKT phosphorylation inhibitory activity in MCP-1-stimulated THP-1 cells (ELISA). The conditions noted are these: 1 μmol/L solution of each compound, MCP-1 stimulation, read-out: AKT phosphorylation inhibition ratio. The class given is cell-based. As to the method: (1) The AKT phosphorylation inhibitory activity of a compound was evaluated according to the following procedure. (2) Human monocyte-like cell line THP-1 was washed with RPMI-1640 media, incubated in the presence of 5% CO2 at 37° C. for 3 hours, washed with Hank's balanced salt solution (HBSS), adjusted to a cell concentration of 6.6×10^6/mL, and then used in an experiment. (3) 30 μL of the cell suspension and 60 μL of each compound solution containing 0.2% DMSO/HBSS were mixed and then preincubated at 37° C. for 5 minutes. 30 μL of HBSS containing 4 μg/mL of MCP-1 was added thereto and then incubated for 30 seconds at 37° C. (4) 30 μl of a cell lysate (20 mmol/L Tris-HCl (pH 7.5), 150 mmol/L NaCl, 1 mmol/L Na2EDTA, 1 mmol/L EGTA, 1% Triton, 2.5 mmol/L sodium pyrophosphate, 1 mmol/L β-glycerophosphate, 1 mmol/L Na3VO4, 1 μg/ml leupeptin, 50 nmol/L APMSF) was added thereto to lyse cells. (5) The amount of AKT phosphorylation in the cell lysate was measured by ELISA method. (6) Anti-phospho-Akt (Ser473) antibodies (clone 193H12, derived from a rabbit) were immobilized onto the solid phase of a micro well plate. 100 μL of the prepared cell lysate was added to the micro well plate, incubated for 2 hours at 37° C., and then washed four times with Phosphate Buffered Saline containing 0.05% Tween-20. (7) An anti-AKT1 antibody (clone 2H10, derived from a mouse) was added thereto, incubated for 1 hour at 37° C., washed similarly, and then reacted with an HRP-labeled anti-mouse IgG antibody. (8) After incubating at 37° C. for 30 minutes and then washing similarly, 100 μL of TMB (3,3′,5,5″-tetramethylbenzidine) was added thereto, followed by reacting at room temperature for 30 minutes. (9) 100 μL of 1 mol/L sulfuric acid was added to quench the color reaction and then the absorbance at 450 nm was measured. (10) A series of diluted cell lysates of a positive control (a sample in the absence of a compound) were used to prepare a calibration curve, the amount of AKT phosphorylation in a sample in the absence of MCP-1 was defined as 0% activity to calculate an inhibition ratio. The measurement was performed for a 1 μmol/L solution of each compound.
In general terms: An ELISA detects its analyte on a solid surface through an enzyme-linked reagent.

Data set [2] has as its target T1, PI-3 kinase γ (Homo sapiens, UniProt P48736). Description: PI3Kγ inhibitory activity, PI3-kinase HTRF assay (inhibition ratio). The class given is biochemical. The conditions noted are these: 0.5 h. An outline of the steps: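 PI3Kγ preincubated 10 min with compound and PIP2 substrate (MgCl2, DTT), then ATP added for 30 min at room temperature. PIP3 detected by HTRF (665/620 nm ratio) after 18 h. Inhibition ratio at 50 or 10 μmol/L, normalised to no-compound and no-enzyme controls.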
In general terms: In TR-FRET formats the signal depends on donor and acceptor labels being close together.

The test system of data set [3] is Salmonella typhimurium TA98 line, TA100 line. Briefly: FAT test (mutagenicity). The conditions noted are these: TA98 and TA100 lines; non-metabolism-activation and metabolism-activation conditions. Also noted: key: When the mutagenicity is negative, the compound is shown as (−); When positive, the compound is shown as (+). As to the method: 20 μL of Salmonella enterica subsp. typhimurium (Salmonella typhimurium TA98 line, TA100 line) cryopreserved was inoculated to 10 mL of liquid nutrient medium (2.5% Oxoid nutrient broth No. 2) and then precultured at 37° C. for 10 hours with shaking. Regarding TA98 line, after 9 mL of a bacterial suspension was centrifuged (2000×g, 10 minutes) to remove the culture solution, the bacteria was suspended in 9 mL of Micro F buffer solution (K2HPO4: 3.5 g/L, KH2PO4: 1 g/L, (NH4)2SO4: 1 g/L, tri-sodium citric acid dihydrate: 0.25 g/L, MgSO4.7H2O: 0.1 g/L), and then added to 110 mL of Exposure media (Micro F buffer solution containing biotin: 8 μg/mL, histidine: 0.2 μg/mL, glucose: 8 mg/mL). Regarding TA 100 line, 120 mL of Exposure media was added to 3.16 mL of the bacterial suspension to prepare a test bacterial suspension. 12 μL of a solution of a test substance in DMSO (diluted eight times in a common ratio of 2 from the maximum dose of 50 mg/mL); 12 μL of DMSO as a negative control; 50 μg/mL 4-nitroquinoline-1-oxide solution in DMSO for TA98 line or 0.25 μg/mL 2-(2-furyl)-3-(5-nitro-2-furyl)acrylamide solution in DMSO as a positive control for TA 100 line in the case of a non-metabolism-activation condition; 12 μL of 40 μg/mL 2-aminoanthracene solution in DMSO for TA98 line or 20 μg/mL of 2-aminoanthracene solution in DMSO for TA100 line in the case of a metabolism-activation condition; were each mixed with 588 μL of the test bacterial suspension (in the case of a metabolism activation condition, a mixed solution of 498 μL of the test bacterial suspension and 90 μL S9 mix) and then cultured at 37° C. at 90 minutes with shaking. 460 μL of the bacterial suspension to which a test substance was exposed was mixed with 230 μL of Indicator media (a Micro F buffer solution containing 8 μg/mL biotin, 0.2 μg/mL histidine, 8 mg/mL glucose, and 37.5 μg/mL bromocresol purple). 50 μL thereof was dispensed to microplate 48 wells/dose and then statically cultured at 37° C. for 3 days. In a well containing bacteria which obtained proliferation potency by mutation of the amino acid (histidine) synthetase gene, the change of pH caused the color change from purple to yellow. Thus, in 48 wells per dose, the number of the bacteria-proliferation wells in which the color changed to yellow was counted, compared with a group of negative controls, and then evaluated. When the mutagenicity is negative, the compound is shown as (−). When positive, the compound is shown as (+).

Data set [4] concerns the target T1, PI-3 kinase γ. Description: PI3Kγ inhibitory activity (Ki value), HTRF. The class given is biochemical. The conditions noted are these: Ki=IC50/(1+10 μM ATP/Km). As to the method:
The PI3Kγ inhibitory activity (Ki value) of a compound was evaluated according to the following procedure:
5 μL of a compound solution containing 10% DMSO and 200 μmol/L of a compound was changed to 5 μL of a compound solution containing 10% DMSO and either 200, 64, 20, 6.4, 2, 0.64, or 0.20 μmol/L of the compound (optionally, this is diluted to a lower concentration). Using a method similar to the method for measuring PI3Kγ inhibitory activity, inhibition ratios were measured in the presence of the compound at 50, 16, 5, 1.6, 0.5, 0.16, and 0.05 μmol/L (optionally, a lower concentration). Then an IC50 value was calculated by a logistic approximation method or the linear regression method using two concentrations that across 50% inhibition. Separately, the ATP concentration in the reaction solution (40 μmol/L ATP, 10 mmol/L MgCl2, 5 mmol/L DTT) at the time of the start of a reaction in the absence of the compound was changed to 80, 40, 20, 10, 5, 2.5, 1.25, or 0.625 μmol/L. Then, HTRF ratios were measured by a similar method. The value obtained by subtracting the HTRF ratio at each ATP concentration from the HTRF ratio in the absence of PI-3 kinase γ was defined as the value obtained by multiplying reaction rate (v) at each ATP concentration with a constant. The Michaelis-Menten constant Km was then calculated by the Lineweaver-Burk plot method. The Ki value of a compound was calculated by the following formula.
Ki=IC50 value/(1+10 μM (test ATP concentration)/Km (μM))

T1 sequence (P48736 whole entry): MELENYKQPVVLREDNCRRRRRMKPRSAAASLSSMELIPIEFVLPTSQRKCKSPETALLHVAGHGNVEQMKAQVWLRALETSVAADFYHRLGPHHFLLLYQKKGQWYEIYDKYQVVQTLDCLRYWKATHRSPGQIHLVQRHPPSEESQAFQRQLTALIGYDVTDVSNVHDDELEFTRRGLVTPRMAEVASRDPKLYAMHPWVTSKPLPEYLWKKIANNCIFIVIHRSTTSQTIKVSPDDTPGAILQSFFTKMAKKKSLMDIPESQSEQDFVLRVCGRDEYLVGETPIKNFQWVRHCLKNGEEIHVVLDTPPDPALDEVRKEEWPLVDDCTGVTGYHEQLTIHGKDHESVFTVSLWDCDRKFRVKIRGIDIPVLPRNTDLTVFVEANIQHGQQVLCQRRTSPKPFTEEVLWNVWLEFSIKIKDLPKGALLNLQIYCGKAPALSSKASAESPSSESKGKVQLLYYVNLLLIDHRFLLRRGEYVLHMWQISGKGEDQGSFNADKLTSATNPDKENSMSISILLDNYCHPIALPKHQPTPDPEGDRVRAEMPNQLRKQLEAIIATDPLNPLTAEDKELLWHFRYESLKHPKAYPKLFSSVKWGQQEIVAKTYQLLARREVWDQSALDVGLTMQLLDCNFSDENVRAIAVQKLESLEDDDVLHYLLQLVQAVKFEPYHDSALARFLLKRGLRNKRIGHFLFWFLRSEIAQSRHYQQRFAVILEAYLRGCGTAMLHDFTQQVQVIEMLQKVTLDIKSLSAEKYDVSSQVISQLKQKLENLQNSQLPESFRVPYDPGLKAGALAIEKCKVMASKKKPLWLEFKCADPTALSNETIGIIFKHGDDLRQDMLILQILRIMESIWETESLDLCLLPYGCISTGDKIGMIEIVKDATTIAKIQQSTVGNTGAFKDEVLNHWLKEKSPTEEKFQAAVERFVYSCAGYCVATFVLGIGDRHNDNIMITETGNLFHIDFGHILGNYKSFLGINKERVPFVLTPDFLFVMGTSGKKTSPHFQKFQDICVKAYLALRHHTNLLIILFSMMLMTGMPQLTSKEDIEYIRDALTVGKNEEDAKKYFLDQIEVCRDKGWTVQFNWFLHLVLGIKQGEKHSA

In general, Ki refers to a measure of affinity in units of concentration, obtained from inhibition or displacement. Consider `COc1cc(N2CCc3nc(NC(=O)NCCC(=O)N4CCCCC4)sc3C2)nc(OC)n1` [Compound I-266], for which, in data set [1], the inhibition was above 99.5%. The inhibition at 10 µM at PI-3 kinase γ [2] (PI3Kγ, compound at 10 μM) was at least 95%. The “mutagenicity (FAT test)” value in data set [3] was “(−)”. Besides, the affinity on PI-3 kinase γ [4], expressed as Ki, was 0.036 µM.

With `CC(C)Oc1cc(C(=O)Nc2cc3n(n2)CCN3c2ccc3c(c2)CCN(C)C3=O)on1` [Compound I-403], on PI-3 kinase γ [2] (compound at 10 μmol/L), the inhibition at 10 µM is at least 95%. In addition, in data set [3], the “mutagenicity (FAT test)” value was “(−)”.

With `CNC(=O)Nc1nc2c(s1)CN(c1nc(OC)nc(OC)n1)CC2` [Compound I-327], the inhibition at 10 µM at PI-3 kinase γ [2] (compound at 10 μmol/L) is 84%. The “mutagenicity (FAT test)” value in data set [3] is on record as “(−)”.
